How the values were obtained:
Assay type in all cases: cell-based
P. fluorescens biofilm [1] = assay: Anti-biofilm coat test using fine particle suspension (Test example 2); conditions: water washing, cultivation 30° C. 48 hours, CV staining
Protocol: (§1) A test piece was taken out after the cultivation and washed using normal saline, and a biofilm amount adhered on the test piece surface was measured. The biofilm amount was measured by CV (crystal violet) staining method. Specifically, a test piece was immersed in 0.1 wt % CV aqueous solution for 30 minutes, an excessive CV was washed out using water, an extraction from the stained region was carried out using 98% ethanol, and an absorbance of 500 nm was measured.
P. fluorescens, which is a gram-negative bacillus having high productivity of a biofilm, was used for evaluating an anti-biofilm property. A dried standard product of P. fluorescens was obtained as NBRC No. 14160 and recovered by the following method. DAIGO growth medium 802 (8.4 g) manufactured by Wako Pure Chemical Corporation and 300 mL of purified water were weighed and added into a beaker, and the mixture was stirred at room temperature for about 30 minutes for dispersion. A recovering liquid was sterilized by an autoclave, 0.2 mL of the recovering liquid was taken out using a micropipette and added into an ample of a dried standard product of P. fluorescens, and the mixture was stirred. Separately, 25 mL of SCD broth (Soybean-Casein Digest Broth) manufactured by Wako Pure Chemical Corporation was added in a flask, and […] of the above P. fluorescens suspension was subsequently added thereto. The bacterium was cultivated at 30° C. and a velocity of 150 rpm in a constant temperature incubator shaker for 24 hours for cultivation. After the cultivation, the bacterium was added in 80% glycerol, and the bacterium liquid was preserved at −80° C.
A fine particle suspension of ε-PL was prepared by using the GPE-ized polycarboxylic acid of Production examples 1 to 5 as a test sample liquid for an anti-biofilm coat. A fine particle suspension was prepared by mixing the both of the aqueous solutions of the GPE-ized polycarboxylic acid and ε-PL so that a concentration of the GPE-ized polycarboxylic acid in the fine particle suspension became 0.5 wt % and a concentration of ε-PL became 0.045 wt %. For comparison, a simple ε-PL aqueous solution, an IPMP (4-isopropyl-3-methylphenol, manufactured by Wako Pure Chemical Corporation) ethanol solution and a silver nano particle aqueous suspension manufactured by JAPAN ION Corporation having concentrations of 0.045 wt % were respectively produced. […] The test piece coated with each drug was stirred at 25° C. and 350 rpm for 1 minute for washing with water as a water section environment. The test piece after the water washing was immersed in a broth containing the bacterium liquid prepared in Test example 1, and a biofilm was formed by a cultivation at 30° C. for 48 hours. A concentration was adjusted to 10 cfu/mL by diluting the P. fluorescens liquid with SCD broth. The test piece was taken cut after the cultivation, washed using normal saline, and an amount of a biofilm adhered on the surface of the test piece was measured. A biofilm inhibition rate was calculated by the following formula: Biofilm inhibition rate (%)=(measurement value of untreated test piece−measurement value of test piece coated with test liquid)/(measurement value of untreated test piece)×100

P. fluorescens biofilm [2] = assay: Biofilm inhibition test after immersion in (contact with) drug (Test example 4); conditions: then re-cultivation in SCD broth 30° C. 24 hours, CV staining
Protocol: as §1
In a microplate of Test example 3 in which a biofilm was formed, 1 mL of each test drug was added for an immersion for 1 minute, 10 minutes, 30 minutes or 60 minutes. The test drug was removed after the contact time, and the residue was washed using 1 mL of normal saline two times. In the microplate, 1 mL of SCD broth was added for a cultivation at 30° C. for 24 hours to form a biofilm again and to evaluate a re-inhibition property of a biofilm. An amount of a biofilm was measured after the cultivation. An amount of a biofilm was measured by CV staining method described in Test example 2. A biofilm inhibition rate was calculated by the following formula: Biofilm inhibition rate (6)=(measurement value of untreatment−measurement value after immersion in test liquid)/(measurement value of untreatment)×100

P. fluorescens biofilm [3] = assay: Biofilm removing effect test after immersion in drug (Test example 3); conditions: 1-week biofilm in 48-well microplate, CV staining
Protocol: as §1
SCD broth containing the bacterial liquid of P. fluorescens having a concentration of 10^6 cfu/mL prepared in Test example 1 was added to 48-well microplate manufactured by Sumitomo Bakelite Co., Ltd. for cultivation at 30° C. for 1 week to form a biofilm in the plate. The bacterial liquid as supernatant was removed, and the residue was rinsed using a sterilized normal saline and dried. The test liquid was prepared by a similar method to Test example 2. Specifically, a fine particle suspension was prepared so that a concentration of GPE-ized polycarboxylic acid became 0.5 wt % and a concentration of ε-PL became 0.04 wt % in the suspension. In a microplate in which a biofilm was formed, 1 mL of each test liquid was added to immerse the biofilm for 1 minute, 10 minutes, 30 minutes or 60 minutes to evaluate a biofilm removing effect at every immersion (contact) time. The test drug was removed after a lapse of the immersion (contact) time, and the residue was immediately washed using 1 mL of normal saline two times and dried to measure a biofilm amount by CV staining method described in Test example 2. A biofilm removing rate was calculated by the following formula: Biofilm removing rate (%)=(measurement value of untreatment−measurement value after immersion in test liquid)/(measurement value of untreatment)×100

[4] = tested on: P. fluorescens in biofilm; assay: Biofilm bactericidal property test (Test example 5); conditions: untreated 40000 cfu/well
Protocol: A number of a viable bacterium in the biofilm was measured by adding 1 mL of normal saline to the surface material on which a biofilm was adsorbed, destroying the biofilm using a ultrasonic washing machine, collecting an elution liquid, diluting the elution liquid from 10^2 to 10^8 using normal saline, inoculating the diluted solution into petri Film™ broth manufactured by 3M, performing cultivation at 30° C. for 1 week, and counting colonies.
After the test drug was contacted with a biofilm, a bactericidal property against the bacterium in the biofilm was tested. In a microplate of Test example 3 in which a biofilm was formed, 1 mL of each test drug was added for an immersion for 1 minute, 10 minutes, 30 minutes and 60 minutes. The test drug was removed after the lapse of contact time, and the reside was immediately washed using 1 mL of normal saline two times. In the microplate, 1 mL of normal saline was added. The bacterium was eluted in the normal saline by treating the mixture for 1 minute using an ultrasound bath to destroy the biofilm. The eluate was diluted from 10^2 to 10^8 using sterilized normal saline, and inoculated to Petrifilm™ broth manufactured by 3M for a cultivation at 30° C. for 1 week. Then, the number of colonies was counted and the number of viable bacteria was measured. The number of viable bacteria was 40000 cfu/well in the untreatment case; on the one hand, it was confirmed that the bacteria number in a biofilm was reduced by an immersion in the fine particle suspension in Examples 37 to 39 as the number of viable bacteria was reduced.

[5] = adhesion amount 0.01 μg/cm^2 on polyvinyl chloride test piece
[6] = adhesion amount 0.02 μg/cm^2 on polyvinyl chloride test piece
[7] = adhesion amount 0.04 μg/cm^2 on polyvinyl chloride test piece
[8] = adhesion amount 0.08 μg/cm^2 on polyvinyl chloride test piece
[9] = adhesion amount 0.12 μg/cm^2 on polyvinyl chloride test piece

In the case of ε-poly-L-lysine [compound 7], the Biofilm inhibition rate (P. fluorescens biofilm [1]; [5]) is reported as 5%.

`Cc1cc(O)ccc1C(C)C` [compound 24, 4-isopropyl-3-methylphenol] was tested, and the “Removal rate of biofilm every contact time (Test example 4)” value (from here on “Removal rate … (Test example 4)”) (P. fluorescens biofilm [2]; contact time 1 min) was 22%, the “Removal rate … (Test example 4)” value (P. fluorescens biofilm [2]; contact time 10 min) was 33% and the “Removal rate … (Test example 4)” value (P. fluorescens biofilm [2]; contact time 30 min) was 37%. The “Removal rate … (Test example 4)” value (P. fluorescens biofilm [2]; contact time 60 min) was 57%, the “Removal rate of biofilm every contact time (Test example 3)” value (shortened to “Removal rate … (Test example 3)”) (P. fluorescens biofilm [3]; contact time 1 min) was 60% and the “Removal rate … (Test example 3)” value (P. fluorescens biofilm [3]; contact time 10 min) was 56%. The “Removal rate … (Test example 3)” value (P. fluorescens biofilm [3]; contact time 30 min) was 61% and the “Removal rate … (Test example 3)” value (P. fluorescens biofilm [3]; contact time 60 min) was 52%.

With ε-poly-L-lysine [compound 8] the Biofilm inhibition rate (P. fluorescens biofilm [1]; [6]) was 29%.

With ε-poly-L-lysine [compound 22] the “Removal rate … (Test example 4)” value (P. fluorescens biofilm [2]; contact time 1 min) was 22%, the “Removal rate … (Test example 4)” value (P. fluorescens biofilm [2]; contact time 10 min) was 38% and the “Removal rate … (Test example 4)” value (P. fluorescens biofilm [2]; contact time 30 min) was 40%. The “Removal rate … (Test example 4)” value (P. fluorescens biofilm [2]; contact time 60 min) was 45%, the “Removal rate … (Test example 3)” value (P. fluorescens biofilm [3]; contact time 1 min) was 87% and the “Removal rate … (Test example 3)” value (P. fluorescens biofilm [3]; contact time 10 min) was 87%. For the same compound, the “Removal rate … (Test example 3)” value (P. fluorescens biofilm [3]; contact time 30 min) was 84% and the “Removal rate … (Test example 3)” value (P. fluorescens biofilm [3]; contact time 60 min) was 83%.

ε-poly-L-lysine [compound 9] gave a Biofilm inhibition rate (P. fluorescens biofilm [1]; [7]) of 45%.

In the case of `Cc1cc(O)ccc1C(C)C` [compound 27, 4-isopropyl-3-methylphenol], the “Number of viable bacteria in biofilm every contact time” value (“Number of viable bacteria” below) ([4]; contact time 1 min) is reported as 1900 cfu/well, the “Number of viable bacteria” value ([4]; contact time 10 min) is reported as 800 cfu/well and the “Number of viable bacteria” value ([4]; contact time 30 min) is reported as 800 cfu/well. The “Number of viable bacteria” value ([4]; contact time 60 min) was 800 cfu/well.

For `Cc1cc(O)ccc1C(C)C` [compound 19, 4-isopropyl-3-methylphenol], the Biofilm inhibition rate (P. fluorescens biofilm [1]; [7]) was 57%.

ε-poly-L-lysine [compound 25] was tested, and the “Number of viable bacteria” value ([4]; contact time 1 min) was 1200 cfu/well, the “Number of viable bacteria” value ([4]; contact time 10 min) was 1200 cfu/well and the “Number of viable bacteria” value ([4]; contact time 30 min) was 1200 cfu/well. The “Number of viable bacteria” value ([4]; contact time 60 min) was 1200 cfu/well.

ε-poly-L-lysine [compound 10] was tested, and the Biofilm inhibition rate (P. fluorescens biofilm [1]; [8]) was 52%.

Compound ε-poly-L-lysine [compound 11] has a Biofilm inhibition rate (P. fluorescens biofilm [1]; [9]) of 57%.

`Cc1cc(O)ccc1C(C)C` [compound 18, 4-isopropyl-3-methylphenol] showed a Biofilm inhibition rate (P. fluorescens biofilm [1]; [6]) of 48%.

`Cc1cc(O)ccc1C(C)C` [compound 17, 4-isopropyl-3-methylphenol] showed a Biofilm inhibition rate (P. fluorescens biofilm [1]; [5]) of 41%.

`Cc1cc(O)ccc1C(C)C` [compound 21, 4-isopropyl-3-methylphenol] gave a Biofilm inhibition rate (P. fluorescens biofilm [1]; [9]) of 75%.

`Cc1cc(O)ccc1C(C)C` [compound 20, 4-isopropyl-3-methylphenol] gave a Biofilm inhibition rate (P. fluorescens biofilm [1]; [8]) of 66%.
